Assay results taken from EP0738149B1 (priority 1994, dated 1995).

Key:
[1] = Neurotoxicity in rats (positional sense test and gait stance test), p.o.; conditions: rat, in vivo, po
Method: (§1) Neurotoxicity of the claimed agents was also assessed in mice (i.p. administration) by the rotorod ataxia test and/or in rats (p.o. administration) by positional sense test and gait stance test. […] The term quantitating the neurotoxicity is the medial neurological toxic dose (TD50), was determined in the above tests.

rats = assay: as above; conditions: rats, p.o.; Table 16
Method: as §1

[2] = system: mechanically dissociated neonatal rat cerebellum; assay: Reversal of NMDA induced cell death in cultures of neonatal rat cerebellum; format: cell-based; conditions: for SURVIVING CELL IN CULTURE: relative to control (100%); for PERCENT PROTECTION: Cell Survival minus the NMDA effect; for EFFECTIVE PROTECTION: X x 100/70
Outline: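 Cerebellar cells from 6–7-day rat pups on poly-L-lysine at 200/mm^2, grown 3 days (37°C, 5% CO2), then compound with NMDA challenge (1mM, 3 hours); spermine (0.01 micromoles) plus NMDA as positive control, duplicates. Survival by phase contrast and trypan blue after 24 hours; effective protection = percent protection ×100/70.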

hypoxia-lesioned rats = assay: Water maze working memory test in hypoxia-lesioned rats, Experiment 3B; format: in vivo, rat; conditions: 0.5mg/kg/day 60 days, ±SEM
Source text: The apparatus used consists of a circular water tank 160cm in diameter filled with water to a depth of 38cm. The water was made cloudy by the addition of milk powder. A clear Plexiglass 15cm platform, supported by a movable stand rest on the bottom of the tank was submerged to a depth of 2cm from the water surface. Normally a swimming rat cannot perceive the location of the platform but it may recall it from a previous experience and training, unless it suffers from some memory impairment. The time taken to locate the platform is measured in seconds and referred to as the latency. During the experiment all orientational cues such as ceiling lights etc. remained unchanged. Longer latencies are observed with rats with some impairment to their memory.
Each rat was given two trails a day for four days, entering the pool from the same point of entry each day. The position of the platform was changed daily to one of four predetermined positions. Each rat was tested twice each day over the four days, referred to as runs 1 and 2 on sessions I-IV. Initially the rat was placed on the platform for 60 seconds. It was then removed and placed at the point of entry and allowed a maximum of 120 seconds to locate the platform (run 1). The second run for that day followed 60 seconds later (run 2). In the second run the rat is expected to find the platform much sooner, having benefitted from its earlier experience. […] The average latency of run 1 in four sessions on four different days was then related to the corresponding parameter of run 2. The smaller the ratio of […], the better the short range learning score.
Table 8. […] The data are the latencies in seconds±SEM that it took a given group to locate a submerged and invisible platform the location of which was shifted from one session to the other. The time interval between sessions was one day, and that between successive runs was 60 seconds. (n=7-8 rats per group) TABLE 8

[3] = 0.005 µM + NMDA 1mM for 3 hours
[4] = 0.010 µM + NMDA 1mM for 3 hours
[5] = 0.100 µM + NMDA 1mM for 3 hours

SMILES | TD50 [1] | RATS TD50 (rats) | SURVIVING CELL IN CULTURE [2, 3] | PERCENT PROTECTION ([2]; 0.005 µM + NMDA) | EFFECTIVE PROTECTION ([2]; 0.005 µM + NMDA) | SURVIVING CELL IN CULTURE [2, 4] | PERCENT PROTECTION ([2]; 0.010 µM + NMDA) | EFFECTIVE PROTECTION ([2]; 0.010 µM + NMDA) | SURVIVING CELL IN CULTURE [2, 5] | PERCENT PROTECTION ([2]; 0.100 µM + NMDA) | latency to locate submerged platform (hypoxia-lesioned rats; Session I Run 1) | latency to locate submerged platform (hypoxia-lesioned rats; Session I Run 2) | latency to locate submerged platform (hypoxia-lesioned rats; Session II Run 1) | latency to locate submerged platform (hypoxia-lesioned rats; Session II Run 2) | latency to locate submerged platform (hypoxia-lesioned rats; Session III Run 1) | latency to locate submerged platform (hypoxia-lesioned rats; Session III Run 2) | latency to locate submerged platform (hypoxia-lesioned rats; Session IV Run 1) | latency to locate submerged platform (hypoxia-lesioned rats; Session IV Run 2) | other results
CC(=O)N[C@@H]1CCc2ccccc21 [Example 18, (R)-N-Acetyl-1-aminoindan] | > 500 mg/kg | >500 mg/kg | 80% | 50% | 71% | 80% | 50% | 71% | 55% | 25% | – | – | – | – | – | – | – | – | EFFECTIVE PROTECTION ([2]; 0.100 µM + NMDA): 36%; SURVIVING CELL IN CULTURE ([2]; 1.000 µM + NMDA 1mM for 3 hours): 47%; PERCENT PROTECTION ([2]; 1.000 µM + NMDA): 17%; EFFECTIVE PROTECTION ([2]; 1.000 µM + NMDA): 24%; SURVIVING CELL IN CULTURE ([2]; 5.000 µM + NMDA 1mM for 3 hours): 32%; PERCENT PROTECTION ([2]; 5.000 µM + NMDA): 2%; EFFECTIVE PROTECTION ([2]; 5.000 µM + NMDA): 3%
N[C@@H]1CCc2ccccc21 [R-AI, (R)-1-aminoindan] | 492 mg/kg | 492 mg/kg | 80% | 50% | 71% | 30% | 0% | 0% | 28% | -2% | 50 ± 16 s | 25 ± 12 s | 25 ± 8 s | 14 ± 3 s | 19 ± 5 s | 14 ± 3 s | 15 ± 5 s | 6 ± 2 s | –
C#CCN(C)[C@H](C)Cc1ccccc1 [deprenyl] | – | – | – | – | – | – | – | – | – | – | 42 ± 16 s | 40 ± 17 s | 42 ± 18 s | 35 ± 16 s | 32 ± 15 s | 8 ± 2 s | 19 ± 6 s | 12 ± 4 s | –
